US9969698B2, “Quinoxalinyl-piperazinamide methods of use” (REXAHN PHARMACEUTICALS, INC., priority 2015, dated 2018)
Read-outs that look alike come from different tables or passages of the source. Marks after values point to notes of the source that are not given here.

Experiments:
CYP3A5 = CYP3A5 (Homo sapiens, UniProt P20815); experiment: Loss of RX-5902 after incubation with expressed CYP450 isozyme; assay type: in vitro ADME; conditions: 30-minute incubation with expressed CYP3A5
Procedure: (§1) Two in vitro studies were performed to examine the involvement of specific cytochrome P450 (CYP450) isozymes in the in vitro metabolism of RX-5902. In the first study, the loss of RX-5902 was measured after incubation with expressed CYP450 isozymes (1A2, 2A6, 2B6, 2C8, 2C9, 2C19, 2D6, 3A4 and 3A5). […] In the second study, RX-5902 was incubated with pooled human liver microsomes in the presence of CYP450 isozyme-selective chemical inhibitors. The inhibitors tested were selective for 1A2, 2A6, 2B6, 2C8, 2C9, 2C19, 2D6, and 3A4/5.

CYP3A4 = CYP3A4 (Homo sapiens, UniProt P08684); experiment: as above; assay type: in vitro ADME; conditions: 30-minute incubation with expressed CYP3A4
CYP3A4, sequence (P08684 whole entry): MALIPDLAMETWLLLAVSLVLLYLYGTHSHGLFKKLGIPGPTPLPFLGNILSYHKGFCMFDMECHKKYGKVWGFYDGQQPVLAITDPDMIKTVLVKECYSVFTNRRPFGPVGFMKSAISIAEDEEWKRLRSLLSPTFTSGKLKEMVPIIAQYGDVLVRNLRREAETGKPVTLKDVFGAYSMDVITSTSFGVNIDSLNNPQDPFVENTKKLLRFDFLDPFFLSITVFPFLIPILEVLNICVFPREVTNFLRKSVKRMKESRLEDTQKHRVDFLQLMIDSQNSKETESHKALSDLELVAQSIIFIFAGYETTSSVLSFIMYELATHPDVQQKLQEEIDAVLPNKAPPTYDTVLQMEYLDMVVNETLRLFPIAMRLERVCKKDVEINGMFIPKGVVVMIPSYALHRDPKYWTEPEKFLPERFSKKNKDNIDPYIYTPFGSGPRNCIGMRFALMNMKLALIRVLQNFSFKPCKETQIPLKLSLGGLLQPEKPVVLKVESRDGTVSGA
Procedure: as §1

[1] = system: CYP450 isozymes 1A2, 2A6, 2B6, 2C8, 2C9, 2C19, 2D6; experiment: Loss of RX-5902 after incubation with other expressed CYP450 isozymes; assay type: in vitro ADME; conditions: 30-minute incubation with any other CYP isozyme
Procedure: as §1

[2] = system: pooled human liver microsomes; experiment: RX-5902 metabolism in liver microsomes with CYP450 isozyme-selective chemical inhibitors; assay type: in vitro ADME
Procedure: as §1

[3] = system: human renal tumor xenografts (Caki-1); assay type: in vivo; conditions: oral; for TGI: 5 days on/2 days off, Day 21
Excerpt: (§2) The efficacy of RX-5902 in human cancer xenograft mouse models is examined. Female nude mice (nu/nu, Harlan or CRL: NU(NCr)-Foxn1^nu, Charles River), 9-10 weeks old, with a body weight (BW) range of 15-30 g on day 1 of the study, are fed ad libitum water (reverse osmosis, 1 ppm C1), and NIH 31 Modified and Irradiated Lab Diet® consisting of 18.0% crude protein, 5.0% crude fat, and 5.0% crude fiber. The mice are housed on irradiated Enrich-o'Cobs™ Laboratory Animal Bedding in static microisolators on a 12-hour light cycle at 20-22° C. (68-72° F.) and 40-60% humidity. The study complies with the recommendations of the Guide for, Care and Use of Laboratory Animals with respect to restraint, husbandry, surgical procedures, feed and fluid regulation, and veterinary care.
Various human tumor cell lines (e.g., HCT116, HT29, H460, H69, Caki-1, CaSki, MiaPaca2, BxPC3 and Colo 205 cells [ATCC, Manassas, Va., USA]) are cultured according to ATCC's instruction. The tumor cells are cultured in tissue culture flasks in a humidified incubator at 37° C., in an atmosphere of 5% CO2 and 95% air.
The cells are harvested during exponential growth and re-suspended with phosphate buffered saline. Each test animal receives a subcutaneous (s.c.) injection of 5×10^6 tumor cells into the right flank and tumor growth is monitored as the average tumor size approaches the target range of 80-300 mm^3. When tumors reach the target size mice are randomized into several groups (n=10-20) and treatment with various regimens of RX-5902 or a positive (e.g., gemcitabine) or negative control (e.g.; vehicle, saline) is initiated. Tumors and body weights are measured regularly until the study is terminated.
Tumors are measured in two dimensions using calipers, and volume is calculated using the formula:
[formula] where w=width and 1=length, in mm, of the tumor. Tumor weight may be estimated with the assumption that 1 mg is equivalent to 1 mm^3 of tumor volume.
Treatment begins on Day 1 in eight groups of mice (n=10-20/group) with established subcutaneous tumors of a particular cell line. Each group is treated according to the study design. All doses are adjusted per body weight. Animals in each group are divided for efficacy and sampling purposes. There are also groups designated to vehicle control and no treatment for sampling purposes.
[…] […] Percent tumor growth inhibition (% TGI) is defined as the difference between the MTV of the designated control group (vehicle administration) and the MTV of the drug-treated group, expressed as a percentage of the MTV of the control group: % TGI=[1−(MTVdrug treated/MTVcontrol)]×100 The data set for TGI analysis includes all animals in a group, except those that die due to treatment-related (TR) or non-treatment-related (NTR) causes. An agent that produces at least 60% TGI in this assay is considered to be potentially therapeutically active.
Animals are monitored individually for tumor growth until Day 71. […] The time to endpoint (TTE) for each mouse is calculated with the following equation:
[formula] where b is the intercept and m is the slope of the line obtained by linear regression of a log-transformed tumor growth data set. […] In instances in which the log-transformed calculated TTE precedes the day prior to reaching endpoint or exceeds the day of reaching tumor volume endpoint, a linear interpolation is performed to approximate TTE. Any animal determined to have died from treatment-related (TR) causes is assigned a TTE value equal to the day of death. […]

[4] = system: human colorectal tumor xenografts (Colo205); experiment: Colorectal cancer xenograft model; assay type: in vivo, mice; conditions: oral
Excerpt: as §2
Various human tumor cell lines (e.g., HCT116, HT29, H460, H69, Caki-1, CaSki, MiaPaca2, BxPC3 and Colo 205 cells [ATCC, Manassas, Va., USA]) are cultured according to ATCC's instruction. […]
The cells are harvested during exponential growth and re-suspended with phosphate buffered saline. Each test animal receives a subcutaneous (s.c.) injection of 5×10^6 tumor cells into the right flank and tumor growth is monitored as the average tumor size approaches the target range of 80-300 mm^3. […] Tumors and body weights are measured regularly until the study is terminated.
Tumors are measured in two dimensions using calipers, and volume is calculated using the formula: […]
Treatment efficacy is determined using data from Day 15. The MTV (n), the median tumor volume for the number of animals, n, on Day 15, is determined for each group. Percent tumor growth inhibition (% TGI) is defined as the difference between the MTV of the designated control group (vehicle administration) and the MTV of the drug-treated group, expressed as a percentage of the MTV of the control group: % TGI=[1−(MTVdrug treated/MTVcontrol)]×100 The data set for TGI analysis includes all animals in a group, except those that die due to treatment-related (TR) or non-treatment-related (NTR) causes. […]
Animals are monitored individually for tumor growth until Day 71. […]

CYP3A5, sequence (P20815 whole entry): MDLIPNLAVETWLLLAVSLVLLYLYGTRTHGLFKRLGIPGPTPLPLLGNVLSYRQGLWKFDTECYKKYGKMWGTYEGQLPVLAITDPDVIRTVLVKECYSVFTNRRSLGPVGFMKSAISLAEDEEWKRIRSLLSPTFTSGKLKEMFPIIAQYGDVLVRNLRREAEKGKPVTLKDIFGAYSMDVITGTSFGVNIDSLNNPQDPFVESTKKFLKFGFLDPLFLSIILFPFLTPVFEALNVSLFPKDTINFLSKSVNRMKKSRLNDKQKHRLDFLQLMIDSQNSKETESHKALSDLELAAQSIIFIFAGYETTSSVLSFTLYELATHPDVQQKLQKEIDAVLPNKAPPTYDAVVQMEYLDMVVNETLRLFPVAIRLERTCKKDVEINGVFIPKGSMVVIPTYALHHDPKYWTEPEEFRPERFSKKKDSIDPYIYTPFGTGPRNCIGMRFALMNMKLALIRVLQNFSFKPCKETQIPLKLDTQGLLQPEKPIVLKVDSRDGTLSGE

In the case of COc1cc(OC)cc(N2CCN(C(=O)Nc3nc4cc(F)ccc4nc3OC)CC2)c1 [RX-5902, 4-(3,5-dimethoxyphenyl)-N-(7-fluoro-3-methoxyquinoxalin-2-yl)piperazine-1-carboxamide], the “loss of RX-5902” value (CYP3A5) is reported as 54%, the “loss of RX-5902” value (CYP3A4) is reported as 87% and the “loss of RX-5902” value [1] is reported as “little loss”. For the same compound, the “inhibition of RX-5902 metabolism” value ([2]; in the presence of a CYP3A4/5-selective inhibitor (ketoconazole)) was “Marked inhibition”, the “inhibition of RX-5902 metabolism” value ([2]; with inhibitors of the other isozymes (1A2, 2A6, 2B6, 2C8, 2C9, 2C19, 2D6)) was “no significant inhibition” and the TGI ([3]; 50 mg/kg daily) was 80%. The complete tumor regressions ([3]; 70 mg/kg daily) was 1/10, the partial tumor regressions ([3]; 70 mg/kg daily) was 6/10 and the TGI ([3]; 70 mg/kg daily) was 96%. For the same compound, the “overall survival of the animals” value ([3]; 50 and 70 mg/kg daily, both doses (P<0.0001)) was “extended the overall survival”, the TGI % ([4]; 160 mg/kg QWK) was 0%* and the TGI % ([4]; 320 mg/kg QWK) was 13%*. For the same compound, the TGI % ([4]; 600 mg/kg QWK) was 33%*.
